Assay results from patent US11974991B1, “Adenosine receptor activity of methyl/ethyl 3-(substituted benzoyl)-6,8-dimethylindolizine-2-substituted-1-carboxylates” (KING FAISAL UNIVERSITY, priority 2023, dated 2024).
Where two headings read alike, the source gives them in different places.

Key:
human A1R = human A1R (Homo sapiens (Human), UniProt P30542); assay: Displacement of specific [3H]-CCPA binding at human A1R expressed in CHO cells; conditions: for Ki: [3H]-CCPA displacement, CHO cells, means ± SE, read-out: hA1R (Ki nM)
human A1R, sequence (P30542 whole entry): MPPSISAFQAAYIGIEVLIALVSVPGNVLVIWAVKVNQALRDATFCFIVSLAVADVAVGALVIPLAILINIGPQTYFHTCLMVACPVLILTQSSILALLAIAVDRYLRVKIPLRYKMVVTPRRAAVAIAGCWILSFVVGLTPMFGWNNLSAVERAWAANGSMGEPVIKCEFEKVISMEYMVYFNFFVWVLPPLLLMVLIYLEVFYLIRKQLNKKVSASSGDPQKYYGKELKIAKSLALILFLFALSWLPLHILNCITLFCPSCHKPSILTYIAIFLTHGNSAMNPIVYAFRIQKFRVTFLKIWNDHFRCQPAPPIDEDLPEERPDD
Description: (§1) Table 1 below reports the affinity and antagonist values of compounds KNV1-KNV13. In particular, the binding affinity is expressed in Ki and the antagonistic activity in IC50.

human A2AR = human A2AR (Homo sapiens (Human), UniProt P29274); assay: Displacement of specific [3H]-NECA binding at human A2AR expressed in CHO cells; conditions: for Ki: [3H]-NECA displacement, CHO cells, means ± SE, read-out: hA2AR (Ki nM)
human A2AR, sequence (P29274 whole entry): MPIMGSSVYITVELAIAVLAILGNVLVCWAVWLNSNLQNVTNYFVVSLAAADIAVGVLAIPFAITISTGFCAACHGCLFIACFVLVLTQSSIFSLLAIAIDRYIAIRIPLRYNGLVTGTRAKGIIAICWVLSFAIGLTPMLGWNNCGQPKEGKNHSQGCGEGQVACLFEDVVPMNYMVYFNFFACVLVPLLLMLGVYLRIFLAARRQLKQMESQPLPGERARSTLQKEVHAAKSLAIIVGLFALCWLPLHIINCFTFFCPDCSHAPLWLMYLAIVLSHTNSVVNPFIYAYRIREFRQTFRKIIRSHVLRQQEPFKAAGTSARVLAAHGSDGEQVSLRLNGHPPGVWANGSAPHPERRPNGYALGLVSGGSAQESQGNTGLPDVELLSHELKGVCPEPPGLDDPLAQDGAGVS
Description: as §1

hA2BR = hA2BR (Homo sapiens (Human), UniProt P29275); assay: Inhibition of NECA-stimulated adenylyl cyclase activity / cAMP accumulation (GloSensor cAMP assay) in CHO cells expressing hA2BR; assay type: cell-based; conditions: for IC50: inhibiting NECA-stimulated adenylyl cyclase activity, CHO cells, means ± SE
hA2BR, sequence (P29275 whole entry): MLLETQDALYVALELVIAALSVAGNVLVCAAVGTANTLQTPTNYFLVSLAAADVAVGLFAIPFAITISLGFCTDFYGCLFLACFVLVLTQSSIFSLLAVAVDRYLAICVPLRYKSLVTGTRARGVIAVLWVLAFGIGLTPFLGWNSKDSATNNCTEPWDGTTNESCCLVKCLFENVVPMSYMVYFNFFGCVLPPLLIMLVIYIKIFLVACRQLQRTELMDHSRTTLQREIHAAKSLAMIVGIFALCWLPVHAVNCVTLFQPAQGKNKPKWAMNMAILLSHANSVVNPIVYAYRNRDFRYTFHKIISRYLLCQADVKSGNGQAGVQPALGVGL
Procedure: (§2) The activity of the present compounds was evaluated using the GloSensor™ cAMP assay, which is a new non-radioactive method offering a simple approach to monitor GPCR activity through changes in the intracellular cAMP concentration. This assay uses a mutant form of Photinus pyralis luciferase into which a cAMP-binding protein moiety has been inserted. The binding with cAMP triggers a biosensor conformational change that leads to an increase of light output allowing to evaluate the activity of ligands at the receptor under study. Following pre-equilibration with a substrate, cells stably expressing both the receptor of interest and the biosensor can be used to evaluate GPCR function enabling easy kinetic measurements of cAMP accumulation or turnover in living cells.
The antagonist profile of the compounds on A2BAR was evaluated by assessing their ability to counteract the agonist NECA-induced increase of cAMP accumulation. After 2 hrs of equilibration in reaction medium cells were incubated in 384 well plate (10 min at room temperature) with 3 μl of different antagonist concentrations and then treated with 3 μl of a fixed dose of NECA. After further 10 minutes of incubation various luminescence reads were performed at different incubation times.

human A3R = human A3R (Homo sapiens (Human), UniProt P0DMS8); assay: Displacement of specific [3H]-HEMADO binding at human A3R expressed in CHO cells
human A3R, sequence (P0DMS8 whole entry): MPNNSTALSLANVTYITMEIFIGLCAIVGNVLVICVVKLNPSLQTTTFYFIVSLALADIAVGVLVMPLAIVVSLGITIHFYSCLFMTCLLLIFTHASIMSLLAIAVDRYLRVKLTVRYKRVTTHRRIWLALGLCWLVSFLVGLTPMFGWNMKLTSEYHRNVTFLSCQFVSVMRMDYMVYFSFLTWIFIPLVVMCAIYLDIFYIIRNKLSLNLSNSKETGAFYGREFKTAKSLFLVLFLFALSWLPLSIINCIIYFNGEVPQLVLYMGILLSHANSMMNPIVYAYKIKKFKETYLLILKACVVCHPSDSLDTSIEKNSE
Description: as §1

hA3R = hA3R (Homo sapiens (Human), UniProt P0DMS8); assay: Counteracting NECA-induced decrease of cAMP accumulation (GloSensor cAMP assay) in CHO cells expressing hA3R; assay type: cell-based
hA3R, sequence (P0DMS8 whole entry): as above
Procedure: as §2
The antagonist profile of the compounds on A3AR was studied by assessing their ability to counteract the NECA-induced decrease of cAMP accumulation. After 2 hrs of equilibration in reaction medium the cells were incubated in a 384 well plate (10 min at room temperature) with 3 μl of different antagonist concentrations and then treated with 3 μl of a fixed dose of agonist. 1 μl of Forskolin 500 μM, final concentration 10 μM, were added 10 minutes after agonist and various luminescence reads were performed at different incubation times.

[1] = [3H]-HEMADO displacement, CHO cells, means ± SE, read-out: hA3R (Ki nM)
[2] = counteracting NECA-induced decrease of cAMP accumulation, CHO cells expressing hA3R, means ± SE, read-out: hA2AR (IC50 nM) [footnote e: hA3R]

## COC(=O)c1c(C(=O)OC)c2c(C)cc(C)cn2c1C(=O)c1ccc(C#N)cc1 [KNV12, Dimethyl 3-(4-cyanobenzoyl)-6,8-dimethylindolizine-1,2-dicarboxylate]
Human A1R
  Ki: > 30000 nM
Human A2AR
  Ki: > 30000 nM
hA2BR
  IC50: > 30000 nM
Human A3R; [1]
  Ki: 12100 ± 1700 nM
hA3R; [2]
  IC50: 41100 ± 9220 nM

## COC(=O)c1c(C(=O)OC)c2c(C)cc(C)cn2c1C(=O)c1ccc(Br)cc1 [KNV4, Dimethyl 3-(4-bromobenzoyl)-6,8-dimethylindolizine-1,2-dicarboxylate]
Human A1R
  Ki: 6980 ± 330 nM
Human A2AR
  Ki: 5540 ± 998 nM
hA2BR
  IC50: > 30000 nM
Human A3R; [1]
  Ki: 2160 ± 468 nM
hA3R; [2]
  IC50: 9580 ± 1080 nM

## CCOC(=O)c1cc(C(=O)c2ccc(Cl)cc2)n2cc(C)cc(C)c12 [KNV1, Ethyl 3-(4-chlorobenzoyl)-6,8-dimethylindolizine-1-carboxylate]
Human A1R
  Ki: > 30000 nM
Human A2AR
  Ki: > 30000 nM
hA2BR
  IC50: > 30000 nM
Human A3R; [1]
  Ki: 591 ± 112 nM
hA3R; [2]
  IC50: 1510 ± 351 nM

## CCOC(=O)c1cc(C(=O)c2ccccc2[N+](=O)[O-])n2cc(C)cc(C)c12 [KNV6, Ethyl 6,8-dimethyl-3-(2-nitrobenzoyl)indolizine-1-carboxylate]
Human A1R
  Ki: > 30000 nM
Human A2AR
  Ki: 7970 ± 1660 nM
hA2BR
  IC50: > 30000 nM
Human A3R; [1]
  Ki: 930 ± 159 nM
hA3R; [2]
  IC50: 3420 ± 879 nM

## COC(=O)c1c(C(=O)OC)c2c(C)cc(C)cn2c1C(=O)c1ccc(OC)cc1 [KNV2, Dimethyl 3-(4-methoxybenzoyl)-6,8-dimethylindolizine-1,2-dicarboxylate]
Human A1R
  Ki: 1330 ± 217 nM
Human A2AR
  Ki: 4820 ± 243 nM
hA2BR
  IC50: > 30000 nM
Human A3R; [1]
  Ki: 1910 ± 45 nM
hA3R; [2]
  IC50: 7900 ± 1080 nM

## COC(=O)c1c(C(=O)OC)c2c(C)cc(C)cn2c1C(=O)c1ccc(C)cc1 [KNV8, Dimethyl 6,8-dimethyl-3-(4-methylbenzoyl)indolizine-1,2-dicarboxylate]
Human A1R
  Ki: 2390 ± 171 nM
Human A2AR
  Ki: 1609 ± 13 nM
hA2BR
  IC50: > 30000 nM
Human A3R; [1]
  Ki: 3090 ± 6 nM
hA3R; [2]
  IC50: 11000 ± 2050 nM

## CCOC(=O)c1cc(C(=O)c2cc(C(F)(F)F)cc(C(F)(F)F)c2)n2cc(C)cc(C)c12 [KNV13, Ethyl 3-(3,5-bis(trifluoromethyl)benzoyl)-6,8-dimethylindolizine-1-carboxylate]
Human A1R
  Ki: > 30000 nM
Human A2AR
  Ki: > 30000 nM
hA2BR
  IC50: > 30000 nM
Human A3R; [1]
  Ki: 7140 ± 130 nM
hA3R; [2]
  IC50: 28000 ± 5220 nM

## Ethyl 3-(4-bromobenzoyl)-6,8-dimethylindolizine-1-carboxylate [KNV3]
Human A1R
  Ki: > 30000 nM
Human A2AR
  Ki: > 30000 nM
hA2BR
  IC50: > 30000 nM
Human A3R; [1]
  Ki: > 30000 nM
hA3R; [2]
  IC50: > 30000 nM

## COC(=O)c1c(C(=O)OC)c2c(C)cc(C)cn2c1C(=O)c1ccc(Cl)cc1 [KNV10, Dimethyl 3-(4-chlorobenzoyl)-6,8-dimethylindolizine-1,2-dicarboxylate]
Human A1R
  Ki: 5610 ± 1080 nM
Human A2AR
  Ki: 6880 ± 705 nM
hA2BR
  IC50: > 30000 nM
Human A3R; [1]
  Ki: 924 ± 127 nM
hA3R; [2]
  IC50: 4210 ± 521 nM

## CCOC(=O)c1cc(C(=O)c2ccc(C#N)cc2)n2cc(C)cc(C)c12 [KNV11, Ethyl 3-(4-cyanobenzoyl)-6,8-dimethylindolizine-1-carboxylate]
Human A1R
  Ki: > 30000 nM
Human A2AR
  Ki: > 30000 nM
hA2BR
  IC50: > 30000 nM
Human A3R; [1]
  Ki: 8540 ± 1500 nM
hA3R; [2]
  IC50: 25900 ± 4200 nM

## Ethyl 3-(4-fluorobenzoyl)-6,8-dimethylindolizine-1-carboxylate [KNV5]
Human A1R
  activity in the other subtypes (A1): not active
  Ki: > 30000 nM
Human A2AR
  activity in the other subtypes (A2A): not active
  Ki: > 30000 nM
hA2BR
  activity in the other subtypes (A2B): not active
  IC50: > 30000 nM
Human A3R; [1]
  Ki: 213 ± 16 nM
Human A3R; unit inferred, read-out: Ki towards A3AR
  Ki: 213 nM
hA3R; [2]
  IC50: 196 ± 55 nM
hA3R; unit inferred, read-out: IC50, antagonistic activity on A3AR
  IC50: 196 nM

## CCOC(=O)c1cc(C(=O)c2ccc(C)cc2)n2cc(C)cc(C)c12 [KNV7, Ethyl 6,8-dimethyl-3-(4-methylbenzoyl)indolizine-1-carboxylate]
Human A1R
  Ki: > 30000 nM
Human A2AR
  Ki: 4970 ± 508 nM
hA2BR
  IC50: > 30000 nM
Human A3R; [1]
  Ki: 1070 ± 157 nM
hA3R; [2]
  IC50: 4210 ± 1150 nM

## CCOC(=O)c1cc(C(=O)c2ccc(OC)cc2)n2cc(C)cc(C)c12 [KNV9, Ethyl 3-(4-methoxybenzoyl)-6,8-dimethylindolizine-1-carboxylate]
Human A1R
  Ki: > 30000 nM
Human A2AR
  Ki: > 30000 nM
hA2BR
  IC50: > 30000 nM
Human A3R; [1]
  Ki: 305 ± 57 nM
hA3R; [2]
  IC50: 865 ± 105 nM
